Laboratory results taken from US20230181614A1, “ADMINISTRATION OF CITICOLINE TO IMPROVE COGNITIVE PERFORMANCE, ATTENTIONAL PERFORMANCE, AND MOTOR FUNCTION” (KYOWA HAKKO BIO CO., LTD., priority 2014, published 2023).

Tested on: Healthy subjects, ages 13-18
Test: General Questionnaire
Assay type: in vivo, human
Text: Study participants were screened by telephone prior to study enrollment. Healthy subjects, ages 13-18, with no significant medical conditions and no history of co-morbid psychiatric disorder, current Axis I or II diagnosis, or previous participation in a pharmacotherapeutic trial, were selected. Use of any psychotropic medication or any previous head injury resulting in loss of consciousness for 5 or more minutes were used as exclusion criteria. While no participant met criteria for a neuropsychiatric disorder at enrollment, clinical assessments were still completed throughout the study to evaluate changes in mood state. In addition, self-reports of sleep habits, lifestyle, and exercise routines were also administered at baseline as well as at each study visit to assess changes in health habits during study participation. Following the completion of Visit 1 assessment, participants were given their 28-day supply of citicoline (250 mg or 500 mg) or placebo, which was randomly assigned. They were instructed to take one capsule a day every day for the next 28 days. Visit 2 occurred fourteen days after Visit 1. At Visit 2, the remaining study pills were counted and participant dosage calendars were checked to ensure compliance with the protocol. Additional neuropsychological measures and clinical assessments were administered during this visit. Participants returned for Visit 3 fourteen days later, on the 28th day of their study participation. The pill bottle and the dosage calendar were collected from each participant. Urine and blood were again obtained. Participants also participated in similar clinical and neuropsychological testing and clinical measures that were given during visit 1. The General Questionnaire and Exercise and Life Style Questionnaire are self-report questionnaires designed to assess a variety of symptoms, behaviors, and self-perceptions, including mood, complexion, exercise, food, and alcohol habits of each of the participants. The General Questionnaire was administered during each of the three study visits; the Exercise and Life Style Questionnaire was administered during each of the three study visits. The General Questionnaire included five summary categories (Vision, Depression, Attention, Sleep, and Complexion) each of which had multiple individual items. Within and between group analyses are reported below for each of the summary categories.

## C[N+](C)(C)CCOP(=O)(O)OP(=O)([O-])OC[C@H]1O[C@@H](n2ccc(N)nc2=O)[C@H](O)[C@@H]1O [citicoline, Cytidine 5′-diphosphocholine]
250 mg/day, V3 (day 28)
  General Questionnaire Vision Q2, Mean: 2.44
  General Questionnaire Vision Q3, Mean: 1.81
  General Questionnaire Vision Total, Mean: 6.59
500 mg/day
  Attention Total V3-V1 Difference Mean: -5.17
  Complexion Total V3-V1 Difference Mean: -1.42
  Depression Total V3-V1 Difference Mean: -5.21
  Sleep Total V3-V1 Difference Mean: -3.25
  Vision Total V3-V1 Difference Mean: -1.50
500 mg/day, Visit 1
  Attention Q13 V1 Mean: 2.42
  Attention Q14 V1 Mean: 2.21
  Attention Q15 V1 Mean: 2.63
  Attention Q16 V1 Mean: 2.83
  Attention Q17 V1 Mean: 1.96
  Attention Q18 V1 Mean: 2.79
  Attention Q19 V1 Mean: 7.29
  Attention Q20 V1 Mean: 2.54
  Attention Q21 V1 Mean: 3.25
  Attention Q22 V1 Mean: 1.83
  Attention Q23 V1 Mean: 2.92
  Attention Q24 V1 Mean: 2.46
  Attention Total V1 Mean: 35.13
  Complexion Q33 V1 Mean: 2.58
  Complexion Q34 V1 Mean: 1.88
  Complexion Total V1 Mean: 4.46
  Depression Q4 V1 Mean: 1.75
  Depression Q5 V1 Mean: 2.46
  Depression Q6 V1 Mean: 2.21
  Depression Q7 V1 Mean: 3.13
  Depression Q8 V1 Mean: 1.92
  Depression Q9 V1 Mean: 3.04
  Depression Q10 V1 Mean: 2.00
  Depression Q11 V1 Mean: 2.00
  Depression Q12 V1 Mean: 2.04
  Depression Total V1 Mean: 20.54
  Sleep Q25 V1 Mean: 3.54
  Sleep Q26 V1 Mean: 2.54
  Sleep Q27 V1 Mean: 2.00
  Sleep Q28 V1 Mean: 2.96
  Sleep Q29 V1 Mean: 2.00
  Sleep Q30 V1 Mean: 2.04
  Sleep Q31 V1 Mean: 2.33
  Sleep Q32 V1 Mean: 3.54
  Sleep Total V1 Mean: 20.83
  Vision Q1 V1 Mean: 2.75
  Vision Q2 V1 Mean: 2.54
  Vision Q3 V1 Mean: 1.71
  Vision Total V1 Mean: 7.00
500 mg/day, Visit 3
  Attention Q13 V3 Mean: 1.96
  Attention Q14 V3 Mean: 1.83
  Attention Q15 V3 Mean: 1.92
  Attention Q16 V3 Mean: 1.92
  Attention Q17 V3 Mean: 1.75
  Attention Q18 V3 Mean: 1.92
  Attention Q19 V3 Mean: 8.42
  Attention Q20 V3 Mean: 1.92
  Attention Q21 V3 Mean: 2.42
  Attention Q22 V3 Mean: 1.63
  Attention Q23 V3 Mean: 2.13
  Attention Q24 V3 Mean: 2.17
  Attention Total V3 Mean: 29.96
  Complexion Q33 V3 Mean: 1.75
  Complexion Q34 V3 Mean: 1.29
  Complexion Total V3 Mean: 3.04
  Depression Q4 V3 Mean: 1.58
  Depression Q5 V3 Mean: 1.88
  Depression Q6 V3 Mean: 1.67
  Depression Q7 V3 Mean: 2.25
  Depression Q8 V3 Mean: 1.46
  Depression Q9 V3 Mean: 2.00
  Depression Q10 V3 Mean: 1.54
  Depression Q11 V3 Mean: 1.38
  Depression Q12 V3 Mean: 1.58
  Depression Total V3 Mean: 15.33
  Sleep Q25 V3 Mean: 2.50
  Sleep Q26 V3 Mean: 1.71
  Sleep Q27 V3 Mean: 1.83
  Sleep Q28 V3 Mean: 2.29
  Sleep Q29 V3 Mean: 1.96
  Sleep Q30 V3 Mean: 1.96
  Sleep Q31 V3 Mean: 2.21
  Sleep Q32 V3 Mean: 3.13
  Sleep Total V3 Mean: 17.58
  Vision Q1 V3 Mean: 1.92
  Vision Q2 V3 Mean: 2.08
  Vision Q3 V3 Mean: 1.50
  Vision Total V3 Mean: 5.50
